According to patent publication US9861680B2, “Immunomodulators” (BRISTOL-MYERS SQUIBB COMPANY, priority 2014, dated 2018):
Numbered stars: 1 amine (or outer) side, 2 acyl side, 3 side chain; on linkers, the order of the positions; unused ones are H or OH. Bridge positions count the residues as written; N and C are the ends. Square brackets hold non-standard residues; d marks the D form. Peptide text beside a SMILES is read from it. X4 = NC(=O)C[C@H](N[*:1])C(=O)C1CCC[C@H]1C(=O)[*:2]; N(2-hydroxyethyl)Ala = C[C@H](NCCO)C(=O)O; X3 = CCCC[C@@H](C(=O)[*:2])N(CCO)[*:1]; X5 = CCCC[C@@H](C(=O)[*:2])N(CC)[*:1]; X7 = COCCN([C@@H](C)C(=O)[*:2])[*:1]; X1 = O=C(CN(CCC(F)(F)F)[*:1])[*:2]; Hyp = O=C(O)[C@@H]1C[C@@H](O)CN1; NMeNle = CCCC[C@H](NC)C(=O)O; NEtAla = CCN[C@@H](C)C(=O)O; NMeA = CN[C@@H](C)C(=O)O; Nphe = O=C(O)CNCc1ccccc1; Dab = NCC[C@H](N)C(=O)O; Nme = COCCNCC(=O)O; NEtG = CCNCC(=O)O

Target: T1, PD-1-Ig binding to PD-L1-TVMV-His (PD-L1-His) (Homo sapiens, UniProt Q9NZQ7)
T1 construct: hPDL1(19-239)-TVMV-His; made in house; host or cells: HEK293T
T1 sequence (Q9NZQ7 with tags, fused parts or gaps): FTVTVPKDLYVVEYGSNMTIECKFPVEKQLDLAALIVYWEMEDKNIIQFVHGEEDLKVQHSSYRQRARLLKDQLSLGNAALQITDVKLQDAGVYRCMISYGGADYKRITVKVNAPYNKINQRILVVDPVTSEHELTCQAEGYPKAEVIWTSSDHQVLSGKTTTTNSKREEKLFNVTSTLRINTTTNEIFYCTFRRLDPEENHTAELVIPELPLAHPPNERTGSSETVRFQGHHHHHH
Experiment: PD-1/PD-L1 Homogenous Time-Resolved Fluorescence (HTRF) binding assay
Details: PD-L1-His 10 nM, PD-1-Ig 20 nM
Source text: Methods for Testing the Ability of Macrocyclic Peptides to Compete for the Binding of Pd-1 to Pd-L1 Using Homogenous Time-Resolved Fluorescence (HTRF) Binding Assays
The ability of the macrocyclic peptides of the present disclosure to bind to PD-L1 was investigated using a PD-1/PD-L1 Homogenous Time-Resolved Fluorescence (HTRF) binding assay.
Homogenous Time-Resolved Fluorescence (HTRF) Assays of Binding of Soluble PD-1 to Soluble PD-L1. Soluble PD-1 and soluble PD-L1 refers to proteins with carboxyl-end truncations that remove the transmembrane-spanning regions and are fused to heterologous sequences, specifically the Fc portion of the human immunoglobuling G sequence (Ig) or the hexahistidine epitope tag (His). All binding studies were performed in an HTRF assay buffer consisting of dPBS supplemented with 0.1% (w/v) bovine serum albumin and 0.05% (v/v) Tween-20. For the PD-1-Ig/PD-L1-His binding assay, inhibitors were pre-incubated with PD-L1-His (10 nM final) for 15 m in 4 μl of assay buffer, followed by addition of PD-1-Ig (20 nM final) in 1 μl of assay buffer and further incubation for 15 m. PD-L1 fusion proteins from either human, cynomologous macaques, mouse, or other species were used. HTRF detection was achieved using europium crypate-labeled anti-Ig monoclonal antibody (1 nM final) and allophycocyanin (APC) labeled anti-His monoclonal antibody (20 nM final). Antibodies were diluted in HTRF detection buffer and 5 μl was dispensed on top of binding reaction. The reaction was allowed to equilibrate for 30 minutes and signal (665 nm/620 nm ratio) was obtained using an EnVision fluorometer. Additional binding assays were established between PD-1-Ig/PD-L2-His (20 and 5 nM, respectively), CD80-His/PD-L1-Ig (100 and 10 nM, respectively) and CD80-His/CTLA4-Ig (10 and 5 nM, respectively). Binding/competition studies between biotinylated Compound No. 71 and human PD-L1-His were performed as follows. Macrocyclic peptide inhibitors were pre-incubated with PD-L1-His (10 nM final) for 60 minutes in 4 μl of assay buffer followed by addition of biotinylated Compound No. 71 (0.5 nM final) in 1 μl of assay buffer. Binding was allowed to equilibrate for 30 minutes followed by addition of europium crypated labeled Streptavidin (2.5 pM final) and APC-labeled anti-His (20 nM final) in 5 μl of HTRF buffer. The reaction was allowed to equilibrate for 30 m and signal (665 nm/620 nm ratio) was obtained using an EnVision fluorometer.
Recombinant Proteins. Carboxyl-truncated human PD-1 (amino acids 25-167) with a C-terminal human Ig epitope tag [hPD-1 (25-167)-3S-IG] and human PD-L1 (amino acids 18-239) with a C-terminal His epitope tag [hPD-L1(19-239)-tobacco vein mottling virus protease cleavage site (TVMV)-His] were expressed in HEK293T cells and purified sequentially by recombinant Protein A affinity chromatography and size exclusion chromatography. Human PD-L2-His (Sino Biologicals), CD80-His (Sino Biologicals), CTLA4-Ig (RnD Systems) were all obtained through commercial sources.
Ranges are as follows: A=0.10-10 μM; B=0.01-0.099 μM; C=0.005-0.0099 μM.

IC50 (numeric value) | IC50 (range class) | SMILES
200 nM |  | CCCC[C@H]1C(=O)N(C)[C@@H](CCCC)C(=O)N[C@@H](CC(C)C)C(=O)N[C@H](C(=O)NCC(N)=O)CSCC(=O)N[C@@H](Cc2ccc(O)cc2)C(=O)N(C)[C@@H](C)C(=O)N[C@@H](CC(N)=O)C(=O)N(Cc2ccccc2)CC(=O)N[C@@H](Cc2cnc[nH]2)C(=O)N[C@@H](CCC(=O)O)C(=O)N2C[C@H](O)C[C@H]2C(=O)N[C@@H](Cc2c[nH]c3ccccc23)C(=O)N[C@@H](CCN)C(=O)N[C@@H](Cc2c[nH]c3ccccc23)C(=O)N1C [Example 3008] ({CH2CO}-Y[NMeA]N[Nphe]HE[Hyp]W[Dab]W[NMeNle][NMeNle]LCG-NH2; thioether N-14)
 | 100 to 10000 nM | CCCC[C@H]1C(=O)N[C@@H](CC(C)C)C(=O)N[C@H](C(=O)NCC(N)=O)CSCC(=O)N[C@@H](Cc2ccc(O)cc2)C(=O)N(C)[C@@H](C)C(=O)N[C@@H](CC(N)=O)C(=O)N2CCC[C@H]2C(=O)N[C@@H](Cc2cnc[nH]2)C(=O)N[C@@H](CCC(=O)O)C(=O)N2C[C@H](O)C[C@H]2C(=O)N[C@@H](Cc2c[nH]c3ccccc23)C(=O)N[C@@H](CCN)C(=O)N[C@@H](Cc2c[nH]c3ccccc23)C(=O)N(CC(=O)O)CC(=O)N1C [Example 3037]
 | 10 to 99 nM | CCCC[C@H]1C(=O)N(C)[C@@H](CCCC)C(=O)N[C@@H](CC(C)C)C(=O)N[C@H](C(=O)NCC(N)=O)CSCC(=O)N[C@@H](Cc2ccc(O)cc2)C(=O)N(C)[C@@H](C)C(=O)N[C@@H](CC(N)=O)C(=O)N(CCC(F)(F)F)CC(=O)N[C@@H](Cc2cnc[nH]2)C(=O)N[C@@H](CCC(=O)O)C(=O)N2C[C@H](O)C[C@H]2C(=O)N[C@@H](Cc2c[nH]c3ccccc23)C(=O)N[C@@H](CCN)C(=O)N[C@@H](Cc2c[nH]c3ccccc23)C(=O)N1C [Example 3010] ({CH2CO}-Y[NMeA]N[X1]HE[Hyp]W[Dab]W[NMeNle][NMeNle]LCG-NH2; thioether N-14)
 | 10 to 99 nM | CCCC[C@H]1C(=O)N(C)[C@@H](CCCC)C(=O)N[C@@H](CC(C)C)C(=O)N[C@H](C(=O)NCC(N)=O)CSCC(=O)N[C@@H](Cc2ccc(O)cc2)C(=O)N(C)[C@@H](C)C(=O)N[C@@H](CC(N)=O)C(=O)N(CC)CC(=O)N[C@@H](Cc2cnc[nH]2)C(=O)N[C@@H](CCC(=O)O)C(=O)N2C[C@H](O)C[C@H]2C(=O)N[C@@H](Cc2c[nH]c3ccccc23)C(=O)N[C@@H](CCN)C(=O)N[C@@H](Cc2c[nH]c3ccccc23)C(=O)N1C [Example 3013] ({CH2CO}-Y[NMeA]N[NEtG]HE[Hyp]W[Dab]W[NMeNle][NMeNle]LCG-NH2; thioether N-14)
2360 nM |  | CCCC[C@H]1C(=O)N[C@@H](CC(C)C)C(=O)N[C@H](C(=O)NCC(N)=O)CSCC(=O)N[C@@H](Cc2ccc(O)cc2)C(=O)N(C)[C@@H](C)C(=O)N[C@@H](CC(N)=O)C(=O)N2CCC[C@H]2C(=O)N[C@@H](Cc2cnc[nH]2)C(=O)N[C@@H](CCC(=O)O)C(=O)N2C[C@H](O)C[C@H]2C(=O)N[C@@H](Cc2c[nH]c3ccccc23)C(=O)N[C@@H](CCN)C(=O)N[C@@H](Cc2c[nH]c3ccccc23)C(=O)N(CCC(F)(F)F)CC(=O)N1C [Example 3038] ({CH2CO}-Y[NMeA]NPHE[Hyp]W[Dab]W[X1][NMeNle]LCG-NH2; thioether N-14)
 | 5 to 9.9 nM | CCCC[C@H]1C(=O)N(CC)[C@@H](C)C(=O)N[C@@H](CC(C)C)C(=O)N[C@H](C(=O)NCC(N)=O)CSCC(=O)N[C@@H](Cc2ccc(O)cc2)C(=O)N(C)[C@@H](C)C(=O)N[C@@H](CC(N)=O)C(=O)C2CCC[C@H]2C(=O)N[C@@H](Cc2cnc[nH]2)C(=O)N[C@@H](CCC(=O)O)C(=O)N2C[C@H](O)C[C@H]2C(=O)N[C@@H](Cc2c[nH]c3ccccc23)C(=O)N[C@@H](CCN)C(=O)N[C@@H](Cc2c[nH]c3ccccc23)C(=O)N1C (stereo partly drawn) [Example 3020] ({CH2CO}-Y[NMeA][X4]HE[Hyp]W[Dab]W[NMeNle][NEtAla]LCG-NH2; thioether N-13)
 | 10 to 99 nM | CCCC[C@H]1C(=O)N(C)[C@@H](CCCC)C(=O)N[C@@H](CC(C)C)C(=O)N[C@H](C(=O)NCC(N)=O)CSCC(=O)N[C@@H](Cc2ccc(O)cc2)C(=O)N(C)[C@@H](C)C(=O)N[C@@H](CC(N)=O)C(=O)N(CCOC)CC(=O)N[C@@H](Cc2cnc[nH]2)C(=O)N[C@@H](CCC(=O)O)C(=O)N2C[C@H](O)C[C@H]2C(=O)N[C@@H](Cc2c[nH]c3ccccc23)C(=O)N[C@@H](CCN)C(=O)N[C@@H](Cc2c[nH]c3ccccc23)C(=O)N1C [Example 3009] ({CH2CO}-Y[NMeA]N[Nme]HE[Hyp]W[Dab]W[NMeNle][NMeNle]LCG-NH2; thioether N-14)
 | 100 to 10000 nM | CCCC[C@H]1C(=O)N[C@@H](CC(C)C)C(=O)N[C@H](C(=O)NCC(N)=O)CSCC(=O)N[C@@H](Cc2ccc(O)cc2)C(=O)N(C)[C@@H](C)C(=O)N[C@@H](CC(N)=O)C(=O)N2CCC[C@H]2C(=O)N[C@@H](Cc2cnc[nH]2)C(=O)N[C@@H](CCC(=O)O)C(=O)N2C[C@H](O)C[C@H]2C(=O)N[C@@H](Cc2c[nH]c3ccccc23)C(=O)N[C@@H](CCN)C(=O)N[C@@H](Cc2c[nH]c3ccccc23)C(=O)N(CCO)[C@@H](C)C(=O)N1C [Example 3033] ({CH2CO}-Y[NMeA]NPHE[Hyp]W[Dab]W[N(2-hydroxyethyl)Ala][NMeNle]LCG-NH2; thioether N-14)
 | 10 to 99 nM | CCCC[C@H]1C(=O)N[C@@H](CC(C)C)C(=O)N[C@H](C(=O)NCC(N)=O)CSCC(=O)N[C@@H](Cc2ccc(O)cc2)C(=O)N(C)[C@@H](C)C(=O)N[C@@H](CC(N)=O)C(=O)N2CCC[C@H]2C(=O)N[C@@H](Cc2cnc[nH]2)C(=O)N[C@@H](CCC(=O)O)C(=O)N2C[C@H](O)C[C@H]2C(=O)N[C@@H](Cc2c[nH]c3ccccc23)C(=O)N[C@@H](CCN)C(=O)N[C@@H](Cc2c[nH]c3ccccc23)C(=O)N(CC)[C@@H](C)C(=O)N1C [Example 3024] ({CH2CO}-Y[NMeA]NPHE[Hyp]W[Dab]W[NEtAla][NMeNle]LCG-NH2; thioether N-14)
 | 10 to 99 nM | CCCC[C@H]1C(=O)N[C@@H](CC(C)C)C(=O)N[C@H](C(=O)NCC(N)=O)CSCC(=O)N[C@@H](Cc2ccc(O)cc2)C(=O)N(C)[C@@H](C)C(=O)N[C@@H](CC(N)=O)C(=O)N2CCC[C@H]2C(=O)N[C@@H](Cc2cnc[nH]2)C(=O)N[C@@H](CCC(=O)O)C(=O)N2C[C@H](O)C[C@H]2C(=O)N[C@@H](Cc2c[nH]c3ccccc23)C(=O)N[C@@H](CCN)C(=O)N[C@@H](Cc2c[nH]c3ccccc23)C(=O)N(CC)[C@@H](CCCC)C(=O)N1C [Example 3023] ({CH2CO}-Y[NMeA]NPHE[Hyp]W[Dab]W[X5][NMeNle]LCG-NH2; thioether N-14)
 | 10 to 99 nM | CCCC[C@H]1C(=O)N[C@@H](CC(C)C)C(=O)N[C@H](C(=O)NCC(N)=O)CSCC(=O)N[C@@H](Cc2ccc(O)cc2)C(=O)N(C)[C@@H](C)C(=O)N[C@@H](CC(N)=O)C(=O)N2CCC[C@H]2C(=O)N[C@@H](Cc2cnc[nH]2)C(=O)N[C@@H](CCC(=O)O)C(=O)N2C[C@H](O)C[C@H]2C(=O)N[C@@H](Cc2c[nH]c3ccccc23)C(=O)N[C@@H](CCN)C(=O)N[C@@H](Cc2c[nH]c3ccccc23)C(=O)N(CCO)[C@@H](CCCC)C(=O)N1C [Example 3030] ({CH2CO}-Y[NMeA]NPHE[Hyp]W[Dab]W[X3][NMeNle]LCG-NH2; thioether N-14)
 | 10 to 99 nM | CCCC[C@H]1C(=O)N(C)[C@@H](CCCC)C(=O)N[C@@H](CC(C)C)C(=O)N[C@H](C(=O)NCC(N)=O)CSCC(=O)N[C@@H](Cc2ccc(O)cc2)C(=O)N(CCOC)[C@@H](C)C(=O)N[C@@H](CC(N)=O)C(=O)N2CCC[C@H]2C(=O)N[C@@H](Cc2cnc[nH]2)C(=O)N[C@@H](CCC(=O)O)C(=O)N2C[C@H](O)C[C@H]2C(=O)N[C@@H](Cc2c[nH]c3ccccc23)C(=O)N[C@@H](CCN)C(=O)N[C@@H](Cc2c[nH]c3ccccc23)C(=O)N1C [Example 3026] ({CH2CO}-Y[X7]NPHE[Hyp]W[Dab]W[NMeNle][NMeNle]LCG-NH2; thioether N-14)
